In ChEMBL document CHEMBL4007476, “Chemical synthesis, redox transformation, and identification of sonnerphenolic C, an antioxidant in Acer nikoense” (Bioorg Med Chem Lett, 2017):

Tests used:
Tyrosinase [1] = target: T1, Tyrosinase (Homo sapiens, UniProt P14679); test: Drug level treated with 10 mM epirhododendrin assessed as tyrosinase (unknown origin)-mediated redox transformation in presence of vitamin C by HPLC analysis; assay type: ADME
T1 sequence (P14679 whole entry): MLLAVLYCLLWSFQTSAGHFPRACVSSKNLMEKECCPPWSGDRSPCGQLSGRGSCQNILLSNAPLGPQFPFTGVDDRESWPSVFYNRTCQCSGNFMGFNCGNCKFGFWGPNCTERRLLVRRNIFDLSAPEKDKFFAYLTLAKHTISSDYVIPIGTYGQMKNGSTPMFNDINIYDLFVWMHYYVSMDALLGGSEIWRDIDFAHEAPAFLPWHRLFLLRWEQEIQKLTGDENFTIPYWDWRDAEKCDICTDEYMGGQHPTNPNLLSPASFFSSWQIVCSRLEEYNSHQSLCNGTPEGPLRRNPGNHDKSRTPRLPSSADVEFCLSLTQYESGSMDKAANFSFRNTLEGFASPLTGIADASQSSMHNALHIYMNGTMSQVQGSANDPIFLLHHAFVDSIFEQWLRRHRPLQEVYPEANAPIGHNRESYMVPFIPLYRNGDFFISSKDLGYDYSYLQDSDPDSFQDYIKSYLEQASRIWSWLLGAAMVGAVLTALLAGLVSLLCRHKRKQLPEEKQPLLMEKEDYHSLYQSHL

[2] = Antioxidant activity assessed as DPPH radical scavenged per mole of compound after 20 mins; assay type: functional
Tyrosinase [3] = target: T1, Tyrosinase; test: Drug metabolism assessed as tyrosinase (unknown origin)-mediated redox transformation by measuring sonnerphenolic C formation at 10 mM in presence of vitamin C by HPLC analysis; assay type: ADME; conditions: 10000 µM

| Drug metabolism (Tyrosinase [1]) | Drug metabolism (Tyrosinase [3]) | Compound | Activity [2] [mol] |
| --- | --- | --- | --- |
| Metabolite_Detected | – | C[C@@H](CCc1ccc(O)c(O)c1)O[C@@H]1O[C@H](CO)[C@@H](O)[C@H](O)[C@H]1O | 2.23 |
| – | Metabolite_Detected | C[C@@H](CCc1ccc(O)cc1)O[C@@H]1O[C@H](CO)[C@@H](O)[C@H](O)[C@H]1O | 0 |
| – | – | VITAMIN E | 1.86 |
